According to the supplement of paper PMC11061612:

Experiments:
Lapatinib = compound: CS(=O)(=O)CCNCc1ccc(-c2ccc3ncnc(Nc4ccc(OCc5cccc(F)c5)c(Cl)c4)c3c2)o1 [Lapatinib]; conditions: max 10 µM
Method in brief: (§1)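 After 24 hours at 37°C and 5% CO2 in 1536-well plates holding 7.5 μl of DMEM/F12 or RPMI with 10% FBS, cancer cell lines were dosed for 72 hours, with final DMSO typically 0.2%. Viability came from CellTiter-Glo 2.0 luminescence, scaled between the means of blank wells and DMSO wells. A non-linear mixed effects model fitted a two-parameter logistic curve to each dose response to give the single-agent IC50.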

AZD8186 = compound: C[C@@H](Nc1cc(F)cc(F)c1)c1cc(C(=O)N(C)C)cc2c(=O)cc(N3CCOCC3)oc12 [AZD8186]; conditions: max 3 µM
Method in brief: as §1

AZD4320 = compound: CN(CC[C@H](CSC1=CC=CC=C1)NC2=C(C=C(C=C2)S(=O)(=O)NC(=O)C3=CC=C(C=C3)N4CCC(CC4)[C@H](C5=CC=CC=C5C6=CC=C(C=C6)Cl)O)S(=O)(=O)C(F)(F)F)CCO [AZD4320]; conditions: max 1 µM
Method in brief: as §1

Olaparib = compound: O=C(c1cc(Cc2n[nH]c(=O)c3ccccc23)ccc1F)N1CCN(C(=O)C2CC2)CC1 [Olaparib]; conditions: max 10 µM
Method in brief: as §1

SN-38 = compound: CCc1c2c(nc3ccc(O)cc13)-c1cc3c(c(=O)n1C2)COC(=O)[C@]3(O)CC [SN-38]; conditions: max 0.3 µM
Method in brief: as §1

SG3199 = compound: CC1=CN2[C@@H](C1)C=NC3=CC(=C(C=C3C2=O)OC)OCCCCCOC4=C(C=C5C(=C4)N=C[C@@H]6CC(=CN6C5=O)C)OC [SG3199]; conditions: max 0.001 µM
Method in brief: as §1

Taselisib = compound: Cc1nc(-c2cn3c(n2)-c2ccc(-c4cnn(C(C)(C)C(N)=O)c4)cc2OCC3)n(C(C)C)n1 [Taselisib]; conditions: max 10 µM
Method in brief: as §1

Trametinib = compound: CC(=O)Nc1cccc(-n2c(=O)n(C3CC3)c(=O)c3c(Nc4ccc(I)cc4F)n(C)c(=O)c(C)c32)c1 [Trametinib]; conditions: max 1 µM
Method in brief: as §1

Capivasertib = compound: C1CN(CCC1(C(=O)N[C@@H](CCO)C2=CC=C(C=C2)Cl)N)C3=NC=NC4=C3C=CN4 [Capivasertib]; conditions: max 10 µM
Method in brief: as §1

Savolitinib = compound: C[C@@H](c1ccc2nccn2c1)n1nnc2ncc(-c3cnn(C)c3)nc21 [Savolitinib]; conditions: max 1 µM
Method in brief: as §1

Gefitinib = compound: COc1cc2ncnc(Nc3ccc(F)c(Cl)c3)c2cc1OCCCN1CCOCC1 [Gefitinib]; conditions: max 10 µM
Method in brief: as §1

Selumetinib = compound: Cn1cnc2c(F)c(Nc3ccc(Br)cc3Cl)c(C(=O)NOCCO)cc21 [Selumetinib]; conditions: max 10 µM
Method in brief: as §1

AZD0156 = compound: CN(C)CCCOc1ccc(-c2ccc3ncc4c(c3c2)n(C2CCOCC2)c(=O)n4C)cn1 [AZD0156]; conditions: max 3 µM
Method in brief: as §1

Doxorubicin = compound: COc1cccc2c1C(=O)c1c(O)c3c(c(O)c1C2=O)C[C@@](O)(C(=O)CO)C[C@@H]3O[C@H]1C[C@H](N)[C@H](O)[C@H](C)O1 [Doxorubicin]; conditions: max 1 µM
Method in brief: as §1

Dasatinib = compound: CC1=C(C(=CC=C1)Cl)NC(=O)C2=CN=C(S2)NC3=CC(=NC(=N3)C)N4CCN(CC4)CCO [Dasatinib]; conditions: max 2 µM
Method in brief: as §1

AZD1390 = compound: CC(C)n1c(=O)n(C)c2cnc3cc(F)c(-c4ccc(OCCCN5CCCCC5)nc4)cc3c21 [AZD1390]; conditions: max 0.3 µM
Method in brief: as §1

Palbociclib = compound: CC(=O)c1c(C)c2cnc(Nc3ccc(N4CCNCC4)cn3)nc2n(C2CCCC2)c1=O [Palbociclib]; conditions: max 10 µM
Method in brief: as §1

Prexasertib = compound: COc1cccc(OCCCN)c1-c1cc(Nc2cnc(C#N)cn2)n[nH]1 [Prexasertib]; conditions: max 1 µM
Method in brief: as §1

Crizotinib = compound: C[C@@H](Oc1cc(-c2cnn(C3CCNCC3)c2)cnc1N)c1c(Cl)ccc(F)c1Cl [Crizotinib]; conditions: max 10 µM
Method in brief: as §1

Venetoclax = compound: CC1(C)CCC(CN2CCN(c3ccc(C(=O)NS(=O)(=O)c4ccc(NCC5CCOCC5)c([N+](=O)[O-])c4)c(Oc4cnc5[nH]ccc5c4)c3)CC2)=C(c2ccc(Cl)cc2)C1 [Venetoclax]; conditions: max 1 µM
Method in brief: as §1

AZD2811 = compound: CCN(CCO)CCCOc1ccc2c(Nc3cc(CC(=O)Nc4cccc(F)c4)[nH]n3)ncnc2c1 [AZD2811]; conditions: max 1 µM
Method in brief: as §1

AZD6738 = compound: C[C@@H]1COCCN1C2=NC(=NC(=C2)C3(CC3)[S@](=N)(=O)C)C4=C5C=CNC5=NC=C4 [AZD6738]; conditions: max 10 µM
Method in brief: as §1

AZD5991 = compound: Cc1c2c(nn1C)CSCc1cc(n(C)n1)CSc1cc(c3ccccc3c1)OCCCc1c(C(=O)O)n(C)c3c-2c(Cl)ccc13 [AZD5991]; conditions: max 1 µM
Method in brief: as §1

MK-2206 = compound: NC1(c2ccc(-c3nc4ccn5c(=O)[nH]nc5c4cc3-c3ccccc3)cc2)CCC1 [MK-2206]; conditions: max 10 µM
Method in brief: as §1

AZD1775 = compound: C=CCn1c(=O)c2cnc(Nc3ccc(N4CCN(C)CC4)cc3)nc2n1-c1cccc(C(C)(C)O)n1 [AZD1775]; conditions: max 3 µM
Method in brief: as §1

AZD5153 = compound: COc1nnc2ccc(N3CCC(c4ccc(OCCN5CCN(C)C(=O)[C@H]5C)cc4)CC3)nn12 [AZD5153]; conditions: max 1 µM
Method in brief: as §1

Alisertib = compound: COc1cc(Nc2ncc3c(n2)-c2ccc(Cl)cc2C(c2c(F)cccc2OC)=NC3)ccc1C(=O)O [Alisertib]; conditions: max 10 µM
Method in brief: as §1

AZD7648 = compound: Cc1cc2ncnn2cc1Nc1ncc2c(n1)n(C1CCOCC1)c(=O)n2C [AZD7648]; conditions: max 10 µM
Method in brief: as §1

Row | Cell Line | IC50, cell viability 72 h (Lapatinib) [µM] | IC50, cell viability 72 h (AZD8186) [µM] | IC50, cell viability 72 h (AZD4320) [µM] | IC50, cell viability 72 h (Olaparib) [µM] | IC50, cell viability 72 h (SN-38) [µM] | IC50, cell viability 72 h (SG3199) [µM] | IC50, cell viability 72 h (Taselisib) [µM] | IC50, cell viability 72 h (Trametinib) [µM] | IC50, cell viability 72 h (Capivasertib) [µM] | IC50, cell viability 72 h (Savolitinib) [µM] | IC50, cell viability 72 h (Gefitinib) [µM] | IC50, cell viability 72 h (Selumetinib) [µM] | IC50, cell viability 72 h (AZD0156) [µM] | IC50, cell viability 72 h (Doxorubicin) [µM] | IC50, cell viability 72 h (Dasatinib) [µM] | IC50, cell viability 72 h (AZD1390) [µM] | IC50, cell viability 72 h (Palbociclib) [µM] | IC50, cell viability 72 h (Prexasertib) [µM] | IC50, cell viability 72 h (Crizotinib) [µM] | IC50, cell viability 72 h (Venetoclax) [µM] | IC50, cell viability 72 h (AZD2811) [µM] | IC50, cell viability 72 h (AZD6738) [µM] | IC50, cell viability 72 h (AZD5991) [µM] | IC50, cell viability 72 h (MK-2206) [µM] | IC50, cell viability 72 h (AZD1775) [µM] | IC50, cell viability 72 h (AZD5153) [µM] | IC50, cell viability 72 h (Alisertib) [µM] | IC50, cell viability 72 h (AZD7648) [µM]
1 | A101D (Melanoma) | > 10 | > 3 | > 1 | > 10 | 0.0559 | > 0.001 | 2.71 | 0.148 | > 10 | > 1 | > 10 | 3.92 | > 3 | 0.456 | > 2 | > 0.3 | > 10 | 0.181 | > 10 | > 1 | > 1 | 4.49 | 0.198 | > 10 | 0.687 | 0.155 | 5.36 | > 10
2 | ESO26 (Esophageal Adenocarcinoma) | 0.814 | > 3 | > 1 | > 10 | 0.223 | > 0.001 | 1.84 | > 1 | 8.59 | > 1 | 4.7 | > 10 | > 3 | > 1 | > 2 | > 0.3 | > 10 | 0.38 | > 10 | > 1 | > 1 | > 10 | > 1 |  | 1.47 | 0.398 | > 10 | > 10
3 | EW-16 (Ewing's Sarcoma) | > 10 | > 3 | > 1 | > 10 | 0.00319 | > 0.001 | 5.72 | > 1 | > 10 | > 1 | > 10 | > 10 | > 3 | 0.0719 | > 2 | > 0.3 | > 10 | 0.726 | > 10 | > 1 | 0.837 | > 10 | > 1 |  | 0.581 | > 1 | 2.28 | > 10
4 | G-402 (Other Solid Carcinomas) | > 10 | > 3 | > 1 | > 10 | 0.027 | > 0.001 | 2.42 | 0.563 | 8.69 | > 1 | > 10 | > 10 | > 3 | 0.123 | 0.319 | > 0.3 | > 10 | 0.523 | 7.96 | > 1 | 0.475 | 7.01 | 0.251 |  | 2.7 | 0.0985 | 1.97 | > 10
5 | GA-10 (Burkitt's Lymphoma) | > 10 | 0.978 | > 1 | > 10 | 0.0234 | > 0.001 | 0.845 | > 1 | 1.48 | > 1 | > 10 | > 10 | > 3 | 0.369 | 0.166 | > 0.3 | 0.234 | 0.00918 | 2.34 | > 1 | 0.108 | 0.631 | 0.252 |  | 0.503 | 0.0833 | 0.147 | > 10
6 | GCT (Other Solid Carcinomas) | > 10 | > 3 | > 1 | > 10 | 0.0435 | > 0.001 | 8.27 | 0.846 | 6.42 | > 1 | > 10 | > 10 | > 3 | > 1 | 0.703 | > 0.3 | > 10 | > 1 | > 10 | > 1 | > 1 | > 10 | > 1 |  | > 3 | 0.603 | > 10 | > 10
7 | HT55 (Colorectal Carcinoma) | 1.75 | > 3 | > 1 | > 10 | > 0.3 | > 0.001 | 0.753 | 0.0301 | > 10 | > 1 | > 10 | 1.15 | > 3 | > 1 | > 2 | > 0.3 | 9.65 | 0.268 | > 10 | > 1 | > 1 | > 10 | > 1 |  | 0.659 | 0.646 | > 10 | > 10
8 | JIMT-1 (Breast Carcinoma) | > 10 | > 3 | > 1 | > 10 | > 0.3 | > 0.001 | 4.29 | > 1 | > 10 | > 1 | > 10 | > 10 | > 3 | > 1 | 1.08 | > 0.3 | > 10 | 0.0851 | > 10 | > 1 | > 1 | 5.64 | > 1 |  | 1.08 | > 1 | > 10 | > 10
